This is an account of results in US20200230126A1, “TARGETED THERAPEUTICS” (TARVEDA THERAPEUTICS, INC., priority 2017, published 2020).

A short description of data set [1]: pH-dependent equilibrium of lactone ring and open chain carboxylic acid form in solution. It is filed as physicochemical. From the text:
In solution, SDC-TRAP-0063 contains a lactone ring at pH-dependent equilibrium with the corresponding open chain carboxylic acid form.

Data set [2] in a line: Repeat dose GLP toxicity study in rats. It is filed as in vivo, rat. The following applies: for AUC(0-t): in vivo, 30 mg/kg, at the STD10 in the GLP toxicology study. How it is done: (§1) The SDC-TRAP-0063 selected starting dose is 30 mg IV on D1, D8, and D15 of each 28-day cycle. ICH S9 recommends that a starting clinical dose for a first-in-human study should be either 1/10th of the STD10 in rodent toxicity studies or ⅙th of the HNSTD in non-rodent toxicity studies.
(§2) Based on the findings in the repeat dose GLP toxicity study in rats, the dose of one-tenth the rat STD10 gives a Human Equivalent Dose (HED) of 0.48 mg/kg informing the SDC-TRAP-0063 first-in-human starting dose (Table 10). The calculation based on the dog highest non-severe toxic dose (HNSTD) of 20 mg/kg determined in the repeat dose GLP toxicity study in dogs is shown in Table 11 and results in a higher HED of 1.9 mg/kg substantiating that rat is the more sensitive species. The human starting dose of 0.48 mg/kg is equivalent to 18 mg/m^2. Assuming an average human weight of 60 kg, the starting dose translates to 29 mg or using an average body surface area of 1.7 m^2, the starting dose is 30 mg.

Data set [3] in a line: Repeat dose GLP toxicity study in dogs. It is filed as in vivo, dog. The following applies: for AUC(0-t): in vivo, 20 mg/kg, at the HNSTD, read-out: exposure (AUCt). How it is done:
as §1, §2

The subject of another data set is mice xenografts. Kind of data set: Anti-tumor efficacy in mice xenografts. It is filed as in vivo, mouse. The following applies: once weekly administration. How it is done: (§3) Exposures achieved in these toxicology studies exceed the levels anticipated to show anti-tumor activity, based on anti-tumor efficacy determined in mice. The minimum dose for anti-tumor efficacy in mice xenografts was determined to be 20 mg/kg with once weekly administration. […] This exposure is similar to that in rats at the STD10 in the GLP toxicology study where the AUCt values determined were 107 and 68 μg·h/mL in males and female rats, respectively. The mouse exposure is lower that the exposure at the HNSTD in dogs, 181 and 183 μg·h/mL in male and female dogs, respectively. Using body surface area, the dog HNSTD for SDC-TRAP-0063 is 6.6-fold higher than the minimum dose for efficacy in the mouse while the rat STD10 is 3 fold higher.

A further data set in a line: Exposure in mice. The following applies: mouse, in vivo, 20 mg/kg dose. On the procedure:
as §3

For a further data set, the system named is tumor cells. Put plainly: DNA double-strand breaks in tumor cells. The data set is classed as cell-based. The following applies: treatment of tumor cells. How it is done: The histone H2A variant H2AX (γ-H2AX) is an indicator of DNA double-strand breaks and is a sensitive marker of DNA damage response. During the DNA damage response, double-stranded breaks (DSB) are generated that result in the rapid phosphorylation of γ-H2AX. […] These DSBs can be quantitated by measuring γ-H2AX levels. In in vivo pharmacology studies, PDc response to SDC-TRAP-0063 was assessed by immunostaining for γ-H2AX and was associated with anti-tumor activity of SDC-TRAP-0063. γ-H2AX has been used in clinical studies to monitor DNA damage induced by topoisomerase I inhibition, ionizing radiation, or Weel inhibition. During Phase 1 only, for patients who sign the provision of optional tumor biopsies and hair follicle collections, levels of γ-H2AX are evaluated in paired tumor biopsies and hair follicles to check for evidence of SDC-TRAP-0063-induced DNA damage response. Based on the mechanism of action of SDC-TRAP-0063, it would be expected that evidence of DNA damage, as measured by γ-H2AX and/or other markers of DNA damage, would be greater in tumor tissue compared to hair follicle. It is estimated that 10 high quality pairs of tumor biopsies and hair follicles are needed to adequately explore the relationship between SDC-TRAP-0063 treatment and DNA damage response.

Data set [4] can be described thus: Light sensitivity of the diluted solution. It is filed as physicochemical. The following applies: duration of 6 hours. The source says: The diluted solution is attached to an infusion set free of diethylhexyl-phthalate (DEHP) and containing a 0.2 micron filter.
Setting [5] is: mg/kg human dose multiplied by 37.

Regarding `CCc1c2c(nc3ccc(OC(=O)N4CCC(CCn5ccc6cc(-n7c(O)nnc7-c7cc(C(C)C)c(O)cc7O)ccc65)CC4)cc13)-c1cc3c(c(=O)n1C2)COC(=O)[C@]3(O)CC` [SDC-TRAP-0063], the pKa in data set [1] is 9.3. In addition, the “HED of 1/10 Rat STD10” value in data set [2] (1/10 rat STD10 divided by 6.2 (60 kg human)) worked out at 0.48 mg/kg; in data set [2] (setting [5]), 18 mg/m^2. For the same compound, in data set [2] (mg/kg dose in rat multiplied by 6), the “Rat 1/10 STD10” value was found to be 18 mg/m^2. In data set [2] (rat), the “1/10 Rat STD10” value was determined as 3.0 mg/kg. Further, the AUC(0-t) in data set [2] (rat, female rats) came out at 68 µg·h/mL; in data set [2] (rat, male rats), 107 µg·h/mL; in data set [3] (dog, female dogs), 183 µg·h/mL; in data set [3] (dog, male dogs) it was 181 µg·h/mL; in the data set “Exposure in mice” it was 112 µg·h/mL. The “Rat STD10” value in data set [2] (repeat dose GLP toxicity study in rats) is 30 mg/kg. Also, the “rat STD10 relative to the minimum dose for efficacy in the mouse” value in data set [2] (using body surface area) came to 3 fold. Besides, the “HED of 1/6 Dog HNSTD” value in data set [3] (1/6 dog HNSTD divided by 1.8 (60 kg human)) amounted to 1.9 mg/kg; in data set [3] (setting [5]), 69 mg/m^2. In addition, the “1/6 Dog HNSTD” value in data set [3] (dog) was 3.3 mg/kg. Moreover, in data set [3] (mg/kg dose in dog multiplied by 20), the “Dog 1/6 HNSTD” value turned out to be 67 mg/m^2. Further, in data set [3] (repeat dose GLP toxicity study in dogs), the “Dog HNSTD” value amounted to 20 mg/kg. The “dog HNSTD relative to the minimum dose for efficacy in the mouse” value in data set [3] (using body surface area) is 6.6 fold. Also, in the data set with mice xenografts, the “minimum dose for anti-tumor efficacy” value is 20 mg/kg. In the data set on tumor cells, the “DNA double-stranded breaks (DSBs)” value is on record as “induces DNA DSBs”. In addition, the “light sensitivity of the diluted solution” value in data set [4] is “not light sensitive”.
